Test results reported in ChEMBL document CHEMBL1128556, “New spiropiperidines as potent and selective non-peptide tachykinin NK2 receptor antagonists” (J Med Chem, 1995).

Each molecule was assayed against T1, Substance-K receptor (Cavia porcellus, UniProt Q64077) (assay: The compound was tested for binding affinity against Tachykinin receptor 2 from guinea pig trachea).
T1 sequence (Q64077 whole entry): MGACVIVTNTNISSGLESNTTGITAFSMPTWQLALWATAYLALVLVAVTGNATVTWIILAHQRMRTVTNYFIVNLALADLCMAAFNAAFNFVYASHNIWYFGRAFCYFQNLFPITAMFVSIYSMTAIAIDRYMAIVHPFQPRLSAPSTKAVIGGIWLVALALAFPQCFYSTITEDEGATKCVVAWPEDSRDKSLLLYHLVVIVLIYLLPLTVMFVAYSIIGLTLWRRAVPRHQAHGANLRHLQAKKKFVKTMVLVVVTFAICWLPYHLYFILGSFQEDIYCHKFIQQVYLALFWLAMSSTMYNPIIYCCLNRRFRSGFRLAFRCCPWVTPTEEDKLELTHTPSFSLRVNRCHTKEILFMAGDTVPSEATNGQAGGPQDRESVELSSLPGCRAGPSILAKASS

Compound | Ki [nM]
O=C1OC2(CCN(CCc3c[nH]c4ccc(F)cc34)CC2)CN1Cc1ccccc1 | 2.51

The molecules below were run against T2, Neuromedin-K receptor (Cavia porcellus, UniProt P30098) (assay: The compound was tested for binding affinity against Tachykinin receptor 3 from guinea pig cerebral cortex).
T2 sequence (P30098 whole entry): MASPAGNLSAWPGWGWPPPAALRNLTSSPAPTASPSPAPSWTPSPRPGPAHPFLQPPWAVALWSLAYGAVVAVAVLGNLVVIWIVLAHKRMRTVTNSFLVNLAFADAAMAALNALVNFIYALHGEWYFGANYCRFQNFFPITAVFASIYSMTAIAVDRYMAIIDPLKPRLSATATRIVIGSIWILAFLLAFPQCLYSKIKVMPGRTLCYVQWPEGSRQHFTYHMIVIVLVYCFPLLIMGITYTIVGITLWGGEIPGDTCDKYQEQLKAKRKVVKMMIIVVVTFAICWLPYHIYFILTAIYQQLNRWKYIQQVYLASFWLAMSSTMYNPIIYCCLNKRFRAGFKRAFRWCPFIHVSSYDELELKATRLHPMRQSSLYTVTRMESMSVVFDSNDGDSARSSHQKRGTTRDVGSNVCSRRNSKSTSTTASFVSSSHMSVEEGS
Assay type: tissue-based

Compound | Ki [nM]
O=C1OC2(CCN(CCc3c[nH]c4ccc(F)cc34)CC2)CN1Cc1ccccc1 | 79400

What follows are molecules tested against T3, Substance-K receptor (Rattus norvegicus, UniProt P16610) (assay: Binding affinity against tachykinin receptor 2 from rat colon.).
T3 sequence (P16610 whole entry): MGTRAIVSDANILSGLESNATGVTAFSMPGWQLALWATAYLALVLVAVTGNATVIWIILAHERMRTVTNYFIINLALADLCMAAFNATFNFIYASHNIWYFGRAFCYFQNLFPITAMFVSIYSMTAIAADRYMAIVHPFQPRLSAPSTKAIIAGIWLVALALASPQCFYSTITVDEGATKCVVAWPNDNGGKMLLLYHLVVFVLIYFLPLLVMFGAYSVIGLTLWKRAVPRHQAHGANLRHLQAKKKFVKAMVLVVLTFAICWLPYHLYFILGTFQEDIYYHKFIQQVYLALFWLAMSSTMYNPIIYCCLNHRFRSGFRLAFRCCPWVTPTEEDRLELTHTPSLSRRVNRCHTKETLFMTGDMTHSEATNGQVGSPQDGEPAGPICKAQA

Compound | Ki [nM]
OC1(CNCc2ccccc2)CCN(CCc2c[nH]c3ccc(F)cc23)CC1 | 100
O=C1OC2(CCN(CCc3c[nH]c4ccc(F)cc34)CC2)CN1C(c1ccccc1)c1ccccc1 | 20
Fc1ccc2[nH]cc(CCN3CCC4(CC3)CCN(Cc3ccccc3)C4)c2c1 | 6.31
COc1ccc(CN2CC3(CCN(CCc4c[nH]c5ccc(F)cc45)CC3)OC2=O)cc1 | 3.98
O=C1OC2(CCN(CCc3c[nH]c4ccc(F)cc34)CC2)CN1Cc1cccc2ccccc12 | 7.94
O=C1OC2(CCN(CCc3c[nH]c4ccc(F)cc34)CC2)CN1Cc1ccc(F)cc1F | 6.31
O=C1OC2(CCN(CCc3c[nH]c4ccc(F)cc34)CC2)CN1Cc1ccc(F)cc1 | 3.98
O=C1OC2(CCN(CCc3c[nH]c4ccc(F)cc34)CC2)CN1Cc1ccc2ccccc2c1 | 20
O=C1OC2(CCN(CCc3c[nH]c4ccc(F)cc34)CC2)CN1Cc1ccncc1 | 100
CC(=O)N(Cc1ccccc1)CC1(O)CCN(CCc2c[nH]c3ccc(F)cc23)CC1 | 1.58
O=C1OC2(CCN(CCc3c[nH]c4ccc(F)cc34)CC2)CN1Cc1cccnc1 | 200
O=C1NC2(CCN(CCc3c[nH]c4ccc(F)cc34)CC2)C(=O)N1Cc1ccccc1 | 126
O=C1OC2(CCN(CCc3c[nH]c4ccc(F)cc34)CC2)CN1C(=O)c1ccccc1 | 2.51
O=C1NC2(CCN(CCc3c[nH]c4ccc(F)cc34)CC2)CN1Cc1ccccc1 | 1.26
O=C1OC2(CCN(CCc3c[nH]c4ccc(F)cc34)CC2)CN1Cc1ccccc1 | 1.26
COC(=O)c1cccc(CN2CC3(CCN(CCc4c[nH]c5ccc(F)cc45)CC3)OC2=O)c1 | 79.4
Cc1ccc(CN2CC3(CCN(CCc4c[nH]c5ccc(F)cc45)CC3)OC2=O)cc1 | 1
CC(c1ccccc1)N1CC2(CCN(CCc3c[nH]c4ccc(F)cc34)CC2)OC1=O (configuration not stated) | 20
O=C1OC2(CCN(CCc3c[nH]c4ccc(F)cc34)CC2)CN1Cc1ccc(Cl)cc1 | 10
CN1CC2(CCN(CCc3c[nH]c4ccc(F)cc34)CC2)OC1=O | 1580
O=C1OC2(CCN(CCc3c[nH]c4ccc(F)cc34)CC2)CN1CCc1ccccc1 | 10
O=C1CC2(CCN(CCc3c[nH]c4ccc(F)cc34)CC2)NN1Cc1ccccc1 | 10
O=C1OC2(CCN(CCc3c[nH]c4ccc(F)cc34)CC2)CN1Cc1cccc(F)c1 | 1.58
Cc1ccc(S(=O)(=O)N2CC3(CCN(CCc4c[nH]c5ccc(F)cc45)CC3)OC2=O)cc1 | 5.01
Cc1ccccc1CN1CC2(CCN(CCc3c[nH]c4ccc(F)cc34)CC2)OC1=O | 12.6
N#Cc1ccc(CN2CC3(CCN(CCc4c[nH]c5ccc(F)cc45)CC3)OC2=O)cc1 | 100
O=C1OC2(CCN(CCc3c[nH]c4ccc(F)cc34)CC2)CN1Cc1ccccn1 | 15.8
O=C1CC2(CCN(CCc3c[nH]c4ccc(F)cc34)CC2)CN1Cc1ccccc1 | 1.26

Each molecule was assayed against Substance-P receptor (Cavia porcellus, UniProt P30547) (assay: The compound was tested for binding affinity against Tachykinin receptor 1 from guinea pig trachea).
Substance-P receptor, sequence (P30547 whole entry): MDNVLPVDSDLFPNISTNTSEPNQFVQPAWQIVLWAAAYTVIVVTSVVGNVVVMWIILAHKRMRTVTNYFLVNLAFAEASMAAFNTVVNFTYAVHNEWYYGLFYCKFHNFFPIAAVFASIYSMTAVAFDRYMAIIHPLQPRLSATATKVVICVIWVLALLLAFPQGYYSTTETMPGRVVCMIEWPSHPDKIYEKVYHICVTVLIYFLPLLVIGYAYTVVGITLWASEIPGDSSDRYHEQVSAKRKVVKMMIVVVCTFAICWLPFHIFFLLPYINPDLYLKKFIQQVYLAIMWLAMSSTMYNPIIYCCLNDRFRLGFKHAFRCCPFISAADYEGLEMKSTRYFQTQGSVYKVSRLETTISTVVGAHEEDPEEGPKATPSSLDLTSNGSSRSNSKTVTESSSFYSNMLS

Compound | Ki [nM]
O=C1OC2(CCN(CCc3c[nH]c4ccc(F)cc34)CC2)CN1Cc1ccccc1 | > 10000

These molecules were tested against T4, Substance-K receptor (Homo sapiens, UniProt P21452) (assay: The compound was tested for binding affinity against Tachykinin receptor 2 from human expressed in CHO cells).
T4 sequence (P21452 whole entry): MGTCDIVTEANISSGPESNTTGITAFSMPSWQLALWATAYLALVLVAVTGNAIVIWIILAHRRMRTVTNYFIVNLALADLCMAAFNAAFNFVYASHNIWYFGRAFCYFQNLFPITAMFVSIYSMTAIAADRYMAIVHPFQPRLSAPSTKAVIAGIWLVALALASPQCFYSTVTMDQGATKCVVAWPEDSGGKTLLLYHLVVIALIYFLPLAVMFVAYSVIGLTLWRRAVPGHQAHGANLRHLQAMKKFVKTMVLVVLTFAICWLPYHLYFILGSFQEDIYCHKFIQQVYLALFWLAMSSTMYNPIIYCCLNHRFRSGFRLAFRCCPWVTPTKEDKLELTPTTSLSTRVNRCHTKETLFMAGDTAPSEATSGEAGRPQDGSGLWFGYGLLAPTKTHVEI
Assay type: cell-based

Compound | Ki [nM]
O=C1OC2(CCN(CCc3c[nH]c4ccc(F)cc34)CC2)CN1Cc1ccccc1 | 7.94
